Measurements reported in paper PMC7893915, “Assessing cross-resistance within the pyrethroids in terms of their interactions with key cytochrome P450 enzymes and resistance in vector populations” (Parasites & Vectors, 2021).
Entries after “also recorded” stand apart in the source; their conditions may differ. Where two headings read alike, the source gives them in different places.

Key:
[1] = test system: CYP6M2, CYP6P3 and CYP6P9a; assay: Pyrethroid metabolism (insecticide depletion), across CYP6M2, CYP6P3 and CYP6P9a; format: in vitro ADME, Anopheles gambiae and An. funestus; conditions: for vulnerability for metabolic attack by the three enzymes, rank in words: CYP6P3, CYP6M2 and CYP6P9a, among the six pyrethroids
Text: In this study, the half maximal inhibitory concentration (IC50), which provides a value for inhibition of each P450 by each pyrethroid (also referred to as ‘binding affinity’), and the percentage depletion, which gives a value for metabolism of each pyrethroid by each P450 (also referred to as vulnerability to metabolic attack), were both included as parameters to establish a P450s structural activity relationship model. This model was used to understand both the chemistry of the pyrethroids and the interaction with mosquito P450s that function as monooxygenases in metabolic resistance, to predict cross-resistance liabilities in vivo. […] A low percentage depletion indicates low metabolism of the pyrethroid, which means that it may be less vulnerable to resistance mediated by P450s.
The values for percentage depletion (metabolism) of each pyrethroid by three of the enzymes CYP6M2, CYP6P3 and CYP6P9a, which were expressed in a single plasmid construct, were also extracted from the same sources and used for the comparative analysis.

Anopheles arabiensis = conditions: Sudan, WHO Bioassay 1998, cited from earlier work
CYP6P2 = conditions: read-out: IC50 CYP6P2, inhibition of diethoxyfluorescein metabolism, cited from earlier work
CYP6P3 = conditions: Incubation time 2h; mean ± SD; ref [38], [41]; cited from earlier work
[2] = mean ± SD across CYP6M2, CYP6P3, CYP6P9a
[3] = ID 200047, F1, larval collection, 9/2007-11/2007, Elmaygoma, ref Seidahmed OME et al. Eastern Mediterranean Health Journal. 2012;18(7):769-76
[4] = footnote a, ref Yunta et al. 2016[8]
[5] = footnote b, ref Yunta et al. 2019[10]

SMILES	% Insecticide depletion Mean across P450s [1, 2] [%]	mortality (Anopheles arabiensis; F0, larval collection, 10/2009-11/2009, El Managil, ref Abdalla H et al. Parasites Vectors. 2014;7:213)	mortality (Anopheles arabiensis; F0, larval collection, 10/2009-11/2009, Rufaa, ref Abdalla H et al. Parasites Vectors. 2014;7:213)	mortality (Anopheles arabiensis; F0, larval collection, 10/2009-11/2009, Wad El Hadad, ref Abdalla H et al. Parasites Vectors. 2014;7:213)	mortality (Anopheles arabiensis; F0, larval collection, 10/2010-11/2010, Wad El Hadad, ref Abdalla H et al. Parasites Vectors. 2014;7:213)	mortality (Anopheles arabiensis; F0, larval collection, 10/2010-11/2010, Wad Medani, ref Abdalla H et al. Parasites Vectors. 2014;7:213)	mortality (Anopheles arabiensis; [3])	IC50 (CYP6P2; [4]) [µM]	vulnerability for metabolic attack by the three enzymes, rank in words [1]	metabolism in words ([1]; by CYP6P3, CYP6M2 and CYP6P9a)	IC50 (CYP6P2; [5]) [µM]	% Insecticide depletion CYP6P3 (CYP6P3) [%]	% Insecticide depletion Mean across P450s ([1]; Anopheles gambiae and An. funestus) [%]
CC1(C)[C@H](C(=O)O[C@H](C#N)c2cccc(Oc3ccccc3)c2)[C@@H]1C=C(Br)Br [Deltamethrin, deltamethrin]	83.5 ± 24.2	92	94	94	71	80	99.5	5					
CCOc1ccc(C(C)(C)COCc2cccc(Oc3ccccc3)c2)cc1 [Etofenprox, etofenprox]	89.0 ± 17.5								most vulnerable	strongly metabolised; also recorded: most depleted	4.7	99.8 ± 0.3	
CC1(C)C(C=C(Cl)Cl)C1C(=O)OCc1cccc(Oc2ccccc2)c1 (centres unmarked) [Permethrin, permethrin]							96	8.6	most vulnerable			100.0 ± 0.0	82.1 ± 21.3
CC1(C)[C@H](C(=O)O[C@H](C#N)c2cccc(Oc3ccccc3)c2)[C@@H]1/C=C(\Cl)C(F)(F)F (racemic) [λ-Cyhalothrin, λ-cyhalothrin]	66.6 ± 17.0						98.9				4.8	83.3 ± 15.4	
Cc1c(COC(=O)[C@@H]2[C@H](/C=C(\Cl)C(F)(F)F)C2(C)C)cccc1-c1ccccc1 (racemic) [Bifenthrin, bifenthrin]	56.3								lowest vulnerability		10.7	76.7 ± 0.3	
